In ChEMBL document CHEMBL3507680, “University of Dundee, Gates Library screen for HepG2 cell viability”:

Assay: Human HepG2 cell viability assay in 384 well format
Assay type: toxicity, cell-based
Set-up: dose 125 nL, time 70.5 hour; cytotoxicity at 70.5 h: concentration not given beside the values
Details: HepG2 cells, read-out: Inhibition

Structure (SMILES)	cytotoxicity at 70.5 h [%]
COc1cccc(CN(C)Cc2ccccc2C#N)c1OC	-1.91
CC(C(=O)Nc1ccnn1C(C)C)N1CCN(Cc2ccccc2)CC1 (configuration not stated)	-7.81
CC(NCc1cc2cc(F)ccc2o1)c1nnc2n1CCCC2 (configuration not stated)	-5.97
NC(=O)c1cccc(NC(=O)CSc2ccc3c(c2)CCC3)c1	-1.16
O=C(c1ccccc1)C1CCN(c2cncc(-n3cccn3)n2)CC1	1.36
CCN1CCC(CNCc2cc(C)ccc2OC)C1 (configuration not stated)	-8.51
COC(=O)c1ccc(NC(=O)CN2CCCCC2C2OCCO2)cc1 (configuration not stated)	0.785
CNC(=O)c1cnc(/C=C/c2cc(OC)c(O)c(OC)c2)s1	-12.6
Cc1ccc(-n2nnc(C(=O)NCCS(N)(=O)=O)c2C2CC2)cc1	-18.3
COc1ccc(NC(=O)c2ccco2)c(N2CCN(C(C)=O)CC2)n1	-11.7
CCS(=O)(=O)N(C)C1CCN(C(=O)c2ccc(Cl)cc2)CC1	-15.5
CCS(=O)(=O)N(C)C1CCN(C(=O)c2ccc(C)c(C)c2)CC1	-8.23
CN(CC(=O)Nc1nncs1)CC1CCCN1c1cccnn1 (configuration not stated)	4.97
Cc1cc(C)n(-c2cncc(N3CCN(C(=O)CN(C)C)CC3)n2)n1	-11.6
COCc1nc2cc(NCc3nc(C)cs3)ccc2o1	-2.56
COCc1nc2cc(NCc3ccc(CO)o3)ccc2o1	14.6
NC(=O)C1CCN(C(=O)C2SCCc3sccc32)CC1 (configuration not stated)	-10.3
O=C(C1SCCc2sccc21)N1CCN(CC(F)F)CC1 (configuration not stated)	-5.33
O=C(C1SCCc2sccc21)N1CCN(C2CC2)C(=O)C1 (configuration not stated)	-5.13
O=C(NCC1(CO)CC1)c1nnn(-c2ccc(F)cc2)c1C1CC1	-4.26
CN1C(=O)c2ccc(NC(=O)CSc3ccc4c(c3)CCC4)cc2C1=O	-3.82
COCc1nc2cc(NCc3csc(C)n3)ccc2o1	3.55
Cc1ccc(C(CNCc2cccn2C)N2CCOCC2)s1 (configuration not stated)	-4.6
CCN(C(=O)CN1CCCC1Cc1ccccc1)c1ccccc1 (configuration not stated)	8.48

Structure (SMILES)	cytotoxicity at 70.5 h [%]
CN(C)C(=O)c1cccc(NC(=O)CN2CCCCC2C2OCCO2)c1 (configuration not stated)	-5.7
COc1ccc(CNCC2CCN(CCO)CC2)cc1F	-5.24
CCN(C1CCN(C(=O)c2cccc(Cl)c2)CC1)S(C)(=O)=O	-6.65
CCOc1ccc(CNC(C)c2cccc(S(=O)(=O)NC)c2)cc1 (configuration not stated)	-9.92
CCn1cc(CNCC(c2ccc(C)s2)N2CCOCC2)cn1 (configuration not stated)	-7.64
CCN1CCOC(CNCc2ccc(OC)c(F)c2)C1 (configuration not stated)	-6.46
CNS(=O)(=O)c1cccc(C(C)NCc2ccco2)c1 (configuration not stated)	-8.45
CCC1CN(CC(=O)NCc2ccco2)CCO1 (configuration not stated)	2.02
FC(F)(F)C1CCCn2c(CNCc3ccco3)nnc21 (configuration not stated)	35.4
CN(CC(=O)N1CCCC1c1noc(C2CC2)n1)C1CC1 (configuration not stated)	-8.76
CCN(C)CCNC(=O)Cc1nc(-c2ccco2)oc1C	-13.2
CCOc1ncccc1NC(=O)N1CCCC1c1cc(C)no1 (configuration not stated)	-8.02
Cc1cc(C2CCCN2C(=O)NCc2ccccn2)on1 (configuration not stated)	-16.2
Cc1cc(C2CCCN2C(=O)NCc2cccnc2OC(C)C)on1 (configuration not stated)	-9.53
CCS(=O)(=O)CC(=O)Nc1c(C)cnn1Cc1cc(F)ccc1F	25.7
O=C(Cn1cnc(NC(=O)c2ccccn2)n1)NCc1ccccc1	-12.9
CC(C)(C)CC(=O)Nc1ncn(CC(=O)NCc2ccccc2)n1	25.6
CCOCCNC(=O)c1cc(Br)c2c(c1)OCCO2	-10.7
Cc1ccc(N2CCCC(N(C)Cc3nnc(C4CC4)o3)C2)nn1 (configuration not stated)	-5.49
Cc1ccc(N2CCCC(N(C)Cc3c(C)noc3C)C2)nn1 (configuration not stated)	25.3
C=C(C)Cn1nnc(C2(NC(=O)c3ccccc3)CCCC2)n1	-8.81
COCCCn1nnc(C2(NC(=O)c3ccccc3)CCCC2)n1	-12.2
COCc1nc2n(n1)CCCC2Nc1nc(C(C)C)ns1 (configuration not stated)	-6.22
O=C(NC1(c2nnn(CC3CCCO3)n2)CCCC1)c1ccccc1 (configuration not stated)	-4.54

Structure (SMILES)	cytotoxicity at 70.5 h [%]
O=C(NC1(c2nnn(CC3CC3)n2)CCCC1)c1ccccc1	-7.63
CC(C)Sc1nnnn1C1CCCC1	-9.93
CCCOC(=O)C(C)Sc1nnnn1C1CCOCC1 (configuration not stated)	-2.83
Cc1ccc(N2CCCC(N(C)Cc3ccccn3)C2)nn1 (configuration not stated)	-10.3
CS(=O)(=O)NCCC(=O)N1CCCC1c1noc(C2CC2)n1 (configuration not stated)	-11.1
Cc1cc(NC(=O)C2CN(Cc3ccccc3)CCO2)ccn1 (configuration not stated)	13
NC(=O)C1CCCN1Cc1cccc(NC(=O)c2cc(Cl)cc(Cl)c2)c1 (configuration not stated)	-15.9
Cc1cc(S(=O)(=O)N2CCCc3cc(F)c(F)cc32)sc1C(=O)O	-1.45
Cc1cc(S(=O)(=O)N2CCCc3ccccc32)sc1C(=O)O	-12.2
CC(C)NC(=O)CCN1CCCC1c1cccc2c1OCCO2 (configuration not stated)	-8.96
COc1ccc(-n2cnnc2SCC(=O)N(C)C(C)C)cn1	-6.69
CCc1nc(CCNC(=O)Nc2ccc(C(=O)NC)cc2)cs1	-1.4
Cc1cccc(NC(=O)[C@@H]2CCCN2CC(=O)Nc2ccccc2)n1	-6.38
CCCS(=O)(=O)N1CCC(NC(=O)c2cc3ccccc3s2)CC1	-6.56
NS(=O)(=O)N1CCC(C(=O)Nc2cccc(OC(F)F)c2)CC1	1.39
NC(=O)C(NC(=O)Cc1cnn(-c2ccccc2)n1)c1ccccc1 (configuration not stated)	-0.915
CCC(=O)NCC(=O)NCC1(c2c(F)cccc2F)CCCC1	-4.06
CC(=O)N(C)CC(=O)NCC1(c2c(F)cccc2F)CCCC1	0.534
O=C(Nc1nnc(N2CCCCC2)[nH]1)c1cccs1	-0.727
Cc1occc1CNC(=O)C1(C)CCCN1C(=O)c1ccccc1 (configuration not stated)	2.74
CCCNC(=O)CCNC(=O)N1CCc2c(F)ccc(F)c2C1	3.2
O=C(Cc1cnn(-c2ccccc2)n1)NC(C1CC1)C1CC1	0.511
COC(=O)CCCNC(=O)N1CCc2c(F)ccc(F)c2C1	-1.47
CCn1cc(CNc2ccc(F)c(N3CCCS3(=O)=O)c2)cn1	0.531

Structure (SMILES)	cytotoxicity at 70.5 h [%]
Cc1occc1CNC(=O)C1(C)CCCN(C(=O)c2ccccc2)C1 (configuration not stated)	0.298
Cc1cc(=O)n(C)cc1NC(=O)Cc1cccc(F)c1	-2.92
CC(NCC1CCN(CCO)CC1)c1ccc(C(F)(F)F)cc1 (configuration not stated)	14
CC(C)(C)CCCC(=O)NS(=O)(=O)CC1CC1	-0.428
CC(C)(CO)CCCNC(=O)N1CCc2c(F)ccc(F)c2C1	-2.98
CC(C)c1ocnc1C(=O)N1CCCC(c2ccn[nH]2)C1 (configuration not stated)	-3.87
Cc1nc2n(n1)CC(NCC(=O)NCC1(c3ccccc3)CC1)CC2 (configuration not stated)	-3.45
Cn1ccnc1CNc1ccc(F)c(N2CCCS2(=O)=O)c1	0.314
OC(CN(Cc1ccccc1)Cc1ccncc1)c1ccco1 (configuration not stated)	26
OC[C@@H](O)CN(CCC(F)(F)F)c1ncccn1	5.67
OC(CN(Cc1ccccc1)Cc1ccon1)c1ccco1 (configuration not stated)	-7.07
CCCN1CCCN(CCCOc2cccc(C#N)c2)CC1	-1.9
CCn1c(CN(C)C(=O)c2ccc(N(C)C)nc2)nc2ccccc21	-14
CC(C)(C)C(=O)N1CCN(CCOc2cccc(C#N)c2)CC1	-5.91
CCn1c(CNC(=O)c2ccc(N(C)C)nc2)nc2ccccc21	-8.62
Cc1cc(C)c2c(c1)C(NC(=O)CSc1nnc[nH]1)CCO2 (configuration not stated)	10.8
CN(Cc1cccs1)c1nc2c(cnn2C(C)(C)C)c(=O)[nH]1	-6.5
Cc1nc(-c2ccsc2)sc1C(=O)N1CCn2c(C)nnc2C1	-0.696
CCC(Nc1ccc(Oc2ccccc2OC)cc1)C(N)=O (configuration not stated)	-4.77
CCC(Nc1cccc(Oc2ccc(C#N)cc2)c1)C(N)=O (configuration not stated)	-4.69
Cc1nc(CN(C)c2nc3c(cnn3C(C)(C)C)c(=O)[nH]2)cs1	8.98
Cc1cccc(S(=O)(=O)NC(=O)c2ccc3c(c2)nnn3C)c1	-5.75
CC1(C(=O)Nc2ccc(F)c(-n3cccc3)c2)CCOCC1	-6.66
Cc1cc(C(=O)NC2CCN(C(=O)Nc3cccnc3)CC2)c(C)o1	-9.09

Structure (SMILES)	cytotoxicity at 70.5 h [%]
Cc1cnc(C(C)(C)NC(=O)NCc2cccnc2OC(C)C)s1	2.79
CN(C(=O)CNc1ccc(C#N)cc1)C1CCCCC1	-3.87
Cc1cc(C(=O)N(C)CC(F)(F)C(F)(F)F)ccc1-n1cncn1	2.03
Cc1nnc(CN(C)CCOc2cccc(Cl)c2)o1	-10.9
COc1ccc(C)cc1CN(Cc1nc(C)c(C)o1)C1CCN(C)C1 (configuration not stated)	3.17
CCn1c(CN(C)C(=O)c2ccc(O)nc2)nc2ccccc21	-5.75
COCCN(Cc1cnn(C)c1)Cc1ccc(C)o1	-9.85
Cc1nnc(CN(C)CCCOc2cccc(Cl)c2)o1	0.527
CS(=O)(=O)NC1CCN(C(=O)COCc2ccccc2)CC1	18.3
CC(C)(C)Cc1noc2ncc(C(=O)N3CCSCC3)cc12	-7.45
O=C(CCS(=O)(=O)C1CCCC1)NCCc1cccc(O)c1	19.9
CC1CN(C)CCN1C(=O)c1cnc2onc(CC(C)(C)C)c2c1 (configuration not stated)	-8.98
CC(C)(C)C(O)CN1CCN(Cc2nccn2CC(F)(F)F)CC1 (configuration not stated)	17.5
CCc1nnc2n1CCN(C(=O)c1cnc(-c3cccs3)s1)C2	-7.22
CC(O)C1CCN(Cc2nccn2CC(F)(F)F)CC1 (configuration not stated)	-7.97
CN(C)C(CNC(=O)c1ncoc1-c1ccccc1)c1ccsc1 (configuration not stated)	-11.1
COC(=O)C(C)(C)C(C)(C)NC(=O)Nc1nnc(-c2ccccn2)s1	-10.6
Cc1cccc(C2CCCN2C(=O)CCS(C)(=O)=O)c1C (configuration not stated)	18.6
CCCS(=O)(=O)NC(=O)c1sc(C2CCCC2)nc1C	-3.78
Nc1c(Cl)cnn1C1CCN(Cc2ccccc2)C1 (configuration not stated)	-3.84
COc1ccc(C(C)NCc2ccc(OC)c(OC)c2OC)cc1F (configuration not stated)	31.6
